Measurements from ChEMBL document CHEMBL6096689, “Structure-Guided Development of ClpP Agonists with Potent Therapeutic Activities against Staphylococcus aureus Infection” (J Med Chem, 2025).
Values after ≈ are worked out from the molar mass of the structure shown. Active and inactive are the calls of the source. The calls are words filed in the database; no cut-off is given here.

How the values were obtained:
[1] = molecular target: T1, ATP-dependent Clp protease proteolytic subunit (Staphylococcus aureus (strain NCTC 8325)) (UniProt Q2G036); experiment: Agonist activity at Staphylococcus aureus ClpP extracted from Escherichia coli BL21 (DE3) cells assessed as induction of ClpP-mediated staphylococcus aureus FtsZ degradation preincubated for 15 mins followed by FtsZ addition by SDS-PAGE analysis; settings: filed as agonist, time <= 105.0 min
T1 sequence (whole entry): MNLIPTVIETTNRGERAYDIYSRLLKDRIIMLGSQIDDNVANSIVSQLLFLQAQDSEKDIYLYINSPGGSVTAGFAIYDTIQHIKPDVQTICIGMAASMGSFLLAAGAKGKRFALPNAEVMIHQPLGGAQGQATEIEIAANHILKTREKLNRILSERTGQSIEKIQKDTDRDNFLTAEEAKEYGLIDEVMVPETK

[2] = molecular target: T1, ATP-dependent Clp protease proteolytic subunit (Staphylococcus aureus (strain NCTC 8325)); experiment: Induction of thermal stabilization of Staphylococcus aureus ClpP extracted from Escherichia coli BL21 (DE3) cells assessed as change in melting temperature at 10 uM incubated for 10 mins by DSF analysis
Staphylococcus aureus [3] = experiment: microbe, parasite or virus in culture; format: functional; settings: NRS-271, time 18 hrs
Description: Antibacterial activity against methicillin-resistant Staphylococcus aureus NRS-271 assessed as inhibition of visible growth of bacteria incubated for 18 hrs by absorbance based analysis

[4] = molecular target: T2, ATP-dependent Clp protease proteolytic subunit, mitochondrial (Homo sapiens, UniProt Q16740); experiment: Agonist activity at human ClpP extracted from Escherichia coli Rosetta (DE3) cells using alpha-casein as substrate assessed as substrate hydrolysis preincubated for 15 mins followed by substrate addition and measured after 2 hrs by SDS-PAGE analysis
[5] = Therapeutic index, ratio of IC50 for human ARH-77 cells to MIC for Staphylococcus aureus Newman; format: toxicity, cell-based; settings: read-out: TI
Staphylococcus aureus [6] = experiment: microbe, parasite or virus in culture; format: functional; settings: Newman, time 18 hrs
Description: Antibacterial activity against Staphylococcus aureus Newman assessed as inhibition of visible growth of bacteria incubated for 18 hrs by absorbance based analysis

Staphylococcus aureus [7] = experiment: Antibacterial activity against Staphylococcus aureus USA300 infected in female ICR mouse peritonitis model assessed as reduction in bacterial load in spleen at 25 to 100 mg/kg, ip pre-infected for 1 hrs followed by compound addition and measured after 5 days relative to control; format: functional; settings: dose 25-100 mg/kg, time 5 day
Staphylococcus aureus [8] = experiment: Antibacterial activity against Staphylococcus aureus USA300 infected in female ICR mouse peritonitis model assessed as reduction in bacterial load in heart at 25 to 100 mg/kg, ip pre-infected for 1 hrs followed by compound addition and measured after 5 days relative to control; format: functional; settings: dose 25-100 mg/kg, time 5 day
Staphylococcus aureus [9] = experiment: Antibacterial activity against Staphylococcus aureus 8325-4 harboring ClpP mutant assessed as inhibition of visible growth of bacteria incubated for 18 hrs by absorbance based assay; format: functional
[10] = Therapeutic index, ratio of IC50 for HK-2 cells to MIC for Staphylococcus aureus Newman; format: toxicity, cell-based; settings: human, read-out: TI
[11] = Agonist activity at Lactobacillus acidophilus ClpP using alpha-casein as substrate assessed as substrate hydrolysis preincubated for 15 mins followed by substrate addition and measured after 2 hrs by SDS-PAGE analysis
Staphylococcus aureus [12] = experiment: Antibacterial activity against Staphylococcus aureus USA300 infected in Zebrafish infection model assessed as increase in zebrafish survival at 25 mg/kg pre-infected for 1 hrs followed by compound addition and measured after 5 days; format: functional, organism-based; settings: time 5.0 day
Staphylococcus aureus [13] = experiment: microbe, parasite or virus in culture; format: functional; settings: NRS-108, time 18 hrs
Description: Antibacterial activity against methicillin-resistant Staphylococcus aureus NRS-108 assessed as inhibition of visible growth of bacteria incubated for 18 hrs by absorbance based analysis

Staphylococcus aureus [14] = experiment: Antibacterial activity against Staphylococcus aureus USA300 infected in female ICR mouse peritonitis model assessed as increase in mouse survival at 25 to 100 mg/kg, ip pre-infected for 1 hrs followed by compound addition and measured after 5 days relative to control; format: functional; settings: dose 25-100 mg/kg, time 5 day
Staphylococcus aureus [15] = experiment: Antibacterial activity against CLpP complemented Staphylococcus aureus 8325-4 assessed as inhibition of visible growth of bacteria incubated for 18 hrs by absorbance based assay; format: functional, organism-based
[16] = molecular target: T3, Cell division protein FtsZ (Staphylococcus aureus) (UniProt P0A031); experiment: Induction of FtsZ degradation in Staphylococcus aureus 8325-4 incubated for 3 hrs by Western blot analysis; settings: dose 1.25-10 µM
T3 sequence (whole entry): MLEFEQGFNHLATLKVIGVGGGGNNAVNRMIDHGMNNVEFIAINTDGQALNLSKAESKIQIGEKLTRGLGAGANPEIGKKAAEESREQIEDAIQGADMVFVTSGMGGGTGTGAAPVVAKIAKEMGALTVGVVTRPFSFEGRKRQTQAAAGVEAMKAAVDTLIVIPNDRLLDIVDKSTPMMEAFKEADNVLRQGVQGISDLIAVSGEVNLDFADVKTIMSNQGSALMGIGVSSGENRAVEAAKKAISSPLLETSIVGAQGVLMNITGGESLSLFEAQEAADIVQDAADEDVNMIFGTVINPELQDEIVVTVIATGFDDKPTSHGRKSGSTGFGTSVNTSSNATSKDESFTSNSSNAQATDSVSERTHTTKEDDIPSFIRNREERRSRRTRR

[17] = molecular target: T2, ATP-dependent Clp protease proteolytic subunit, mitochondrial; experiment: Induction of thermal stabilization of human ClpP extracted from Escherichia coli Rosetta (DE3) cells assessed as change in melting temperature at 10 uM incubated for 10 mins by DSF analysis
Staphylococcus aureus [18] = experiment: Antibacterial activity against CLpP overexpressing Staphylococcus aureus 8325-4 assessed as inhibition of visible growth of bacteria incubated for 18 hrs by absorbance based assay; format: functional, organism-based
[19] = Toxicity in female ICR mouse model of peritonitis infected with Staphylococcus aureus USA300 assessed as effect on body weight at 50 mg/kg, ip pre-infected for 1 hrs followed by compound addition and measured after 5 days; format: organism-based; settings: in vivo, 120 h, time 5 day
[20] = Therapeutic index, ratio of IC50 for HEK293T/17 cells to MIC for Staphylococcus aureus Newman; format: toxicity, cell-based; settings: human, read-out: TI
Staphylococcus aureus [21] = experiment: microbe, parasite or virus in culture; format: functional; settings: NRS-1, time 18 hrs
Description: Antibacterial activity against methicillin-resistant Staphylococcus aureus NRS-1 assessed as inhibition of visible growth of bacteria incubated for 18 hrs by absorbance based analysis

Staphylococcus aureus [22] = experiment: Antibacterial activity against Staphylococcus aureus USA300 infected in Zebrafish infection model assessed as increase in zebrafish survival at 5 mg/kg pre-infected for 1 hrs followed by compound addition and measured after 5 days; format: functional, organism-based; settings: time 5.0 day
Staphylococcus aureus [23] = experiment: Antibacterial activity against Staphylococcus aureus USA300 infected in female ICR mouse peritonitis model assessed as reduction in bacterial load in liver at 25 to 100 mg/kg, ip pre-infected for 1 hrs followed by compound addition and measured after 5 days relative to control; format: functional; settings: dose 25-100 mg/kg, time 5 day
Staphylococcus aureus [24] = experiment: Antibacterial activity against Staphylococcus aureus USA300 infected in female ICR mouse peritonitis model assessed as reduction in bacterial load in peritoneal fluid at 25 to 100 mg/kg, ip pre-infected for 1 hrs followed by compound addition and measured after 5 days relative to control; format: functional; settings: dose 25-100 mg/kg, time 5 day
[25] = molecular target: T4, ATP-dependent Clp protease proteolytic subunit (Staphylococcus aureus (strain NCTC 8325), UniProt Q2G036); experiment: Agonist activity at Staphylococcus aureus ClpP extracted from Escherichia coli BL21 (DE3) cells using FITC-casein as substrate assessed as substrate hydrolysis preincubated for 60 mins followed by substrate addition and measured after 1 hrs by fluorescence based analysis
T4 sequence (Q2G036 whole entry): T1 sequence (whole entry)

Staphylococcus aureus [26] = experiment: microbe, parasite or virus in culture; format: functional; settings: USA300, time 18 hrs
Description: Antibacterial activity against methicillin-resistant Staphylococcus aureus USA300 assessed as inhibition of visible growth of bacteria incubated for 18 hrs by absorbance based analysis

Staphylococcus aureus [27] = experiment: microbe, parasite or virus in culture; format: functional; settings: time 18 hrs
Description: Antibacterial activity against multidrug-resistant Staphylococcus aureus clinical isolate XJ051 assessed as inhibition of visible growth of bacteria incubated for 18 hrs by absorbance based analysis

T2 sequence (Q16740 whole entry): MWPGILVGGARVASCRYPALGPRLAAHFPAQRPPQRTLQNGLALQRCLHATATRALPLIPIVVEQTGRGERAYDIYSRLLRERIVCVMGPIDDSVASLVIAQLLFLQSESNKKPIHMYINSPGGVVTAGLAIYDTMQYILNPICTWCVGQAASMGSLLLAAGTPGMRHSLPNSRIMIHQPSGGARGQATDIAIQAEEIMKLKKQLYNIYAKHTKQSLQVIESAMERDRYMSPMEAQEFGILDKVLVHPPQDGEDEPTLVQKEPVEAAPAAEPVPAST

CC[C@H](C)[C@H]1C(=O)N(Cc2ccc(OC)c3ccccc23)C[C@@H]2N(C(=O)NCCCC(F)(F)F)CCC(=O)N12
Activity [1]: Time-dependent-effect
ΔTm [2]: 22.8 °C
MIC (Staphylococcus aureus [3]): 0.06 µg/mL (≈ 0.109 µM)
EC50 [4]: 3.6 µM
selectivity ratio [5]: 206
MIC (Staphylococcus aureus [6]): 0.063 µg/mL (≈ 0.115 µM)
Activity (Staphylococcus aureus [7]): 2 log10CFU/g
Activity (Staphylococcus aureus [8]): 2 log10CFU/g
MIC (Staphylococcus aureus [9]): > 128 µg/mL
selectivity ratio [10]: 180
EC50 [11]: > 100 µM
Activity (Staphylococcus aureus [12]): Active
MIC (Staphylococcus aureus [13]): 0.06 µg/mL (≈ 0.109 µM)
Activity (Staphylococcus aureus [14]): 89%
Activity (Staphylococcus aureus [15]): Active
Activity [16]: Dose-dependent-effect
ΔTm [17]: 18 °C
Activity (Staphylococcus aureus [18]): Active
Activity [19]: Non-toxic
selectivity ratio [20]: 190
MIC (Staphylococcus aureus [21]): 0.13 µg/mL (≈ 0.237 µM)
Activity (Staphylococcus aureus [22]): Active; Comparable To 25 Mg/Kg Of (R)-Zg197
Activity (Staphylococcus aureus [23]): 2 log10CFU/g
Activity (Staphylococcus aureus [24]): 2 log10CFU/g
EC50 [25]: 0.33 µM
MIC (Staphylococcus aureus [26]): 0.06 µg/mL (≈ 0.109 µM)
MIC (Staphylococcus aureus [27]): 0.03 µg/mL (≈ 0.0547 µM)
